Target: T1, Human autotaxin enzyme (Homo sapiens, UniProt Q13822)
T1 construct: purchased R&D System
Test: Evaluation of autotaxin inhibitor, 18:0 Lyso PC / choline assay (Test Example 2)
Assay type: biochemical
Conditions: human autotaxin enzyme, 18:0 Lyso PC substrate, choline assay, room temperature 2 hours; read-out: Inhibitor activity (IC50)
Method in brief: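 Human autotaxin in 100 mM Tris-HCl pH 7.5, 150 mM NaCl, 5 mM MgCl2, 0.05% Triton X-100 reacted with 18:0 Lyso PC (200 μM stock) and test compound 2 h at room temperature. Released choline quantified via choline oxidase/peroxidase resorufin fluorescence (ex 531/em 598 nm, 20 min); inhibition vs no-compound and no-enzyme controls, concentration-response curve.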

SMILES	IC50 [nM]
COC(=O)Nc1cc(Cl)ccc1-c1cc(=O)n(CC(=O)N2C(C)(C)CC(O)CC2(C)C)c(C)n1 [Compound I-0384]	≥ 1000
Cc1nc(-c2ccc(C#N)cc2NC(=O)C(C)(C)C)cc(=O)n1CC(=O)NC1(c2nc(=O)o[nH]2)CC1 [Compound I-0385]	10 to 100
Cc1nc(-c2ccc(Cl)cc2NC(=O)C(C)(C)C)cc(=O)n1CC(=O)NC1(c2nc(=O)o[nH]2)CC1 [Compound I-0386]	10 to 100
O=C(Cn1c(CCCC(F)(F)F)nc(-c2ccc(C(F)(F)F)cc2)cc1=O)NC1(c2nc(=O)o[nH]2)CC1 [Compound I-0387]	10 to 100
CC(C)(C)OC(=O)Cn1cnc(-c2ccc(Cl)cc2)cc1=O [Compound I-0388]	≥ 1000
COC(=O)Nc1cc(C#N)ccc1-c1cc(=O)n(CC(=O)NC(C)C)c(C)n1 [Compound I-0389]	10 to 100
COC(=O)Nc1cc(Cl)ccc1-c1cc(=O)n(CC(=O)NC(C)C)c(C)n1 [Compound I-0390]	10 to 100
Cc1nc(-c2ccc(Cl)cc2NC(=O)C2CC2)cc(=O)n1CC(=O)NC(C)C [Compound I-0391]	10 to 100
COC(=O)Nc1cc(Cl)ccc1-c1cc(=O)n(CC(=O)NC2(C)CC2)c(C)n1 [Compound I-0392]	10 to 100
COC(=O)Nc1cc(Cl)ccc1-c1cc(=O)n(CC(=O)NC2COC2)c(C)n1 [Compound I-0393]	10 to 100
COC(=O)Nc1cc(C#N)ccc1-c1cc(=O)n(CC(=O)NC2(C#N)CC2)c(C)n1 [Compound I-0394]	< 10
COC(=O)Nc1cc(Cl)ccc1-c1cc(=O)n(CC(=O)N2CC(F)C2)c(C)n1 [Compound I-0395]	100 to 1000
O=C(Cn1cnc(-c2ccc(Cl)cc2)cc1=O)NC(Cc1ccccc1)C(=O)O (stereo not drawn) [Compound I-0396]	≥ 1000
COC(=O)Nc1cc(C#N)ccc1-c1cc(=O)n(CC(=O)NC2(C)COC2)c(C)n1 [Compound I-0397]	10 to 100
COC(=O)Nc1cc(C#N)ccc1-c1cc(=O)n(CC(=O)N2CC(C)(O)C2)c(C)n1 [Compound I-0398]	100 to 1000
COC(=O)Nc1cc(C#N)ccc1-c1cc(=O)n(CC(=O)NCC(C)(C)O)c(C)n1 [Compound I-0399]	10 to 100
COC(=O)Nc1cc(C#N)ccc1-c1cc(=O)n(CC(=O)NC(C)(C)CO)c(C)n1 [Compound I-0400]	10 to 100
Cc1nc(-c2ccc(Cl)cc2NC(=O)C2CC2)cc(=O)n1CC(=O)NC1(C)CC1 [Compound I-0401]	10 to 100
O=C(Cn1cnc(-c2ccc(Cl)cc2)cc1=O)NCCCNC(=O)c1cn[nH]n1 [Compound I-0402]	≥ 1000
COC(=O)Nc1cc(Cl)ccc1-c1cc(=O)n(CC(=O)NC2(C#N)CC2)c(C)n1 [Compound I-0403]	10 to 100
Cc1nc(-c2ccc(Cl)cc2NC(=O)C2CC2)cc(=O)n1CC(=O)NC1COC1 [Compound I-0404]	10 to 100
Cc1nc(-c2ccc(Cl)cc2NC(=O)C2CC2)cc(=O)n1CC(=O)NC(C)(C)C [Compound I-0405]	10 to 100

SMILES	IC50 [nM]
Cc1nc(-c2ccc(Cl)cc2NC(=O)C2CC2)cc(=O)n1CC(=O)NCC(N)=O [Compound I-0406]	10 to 100
CC(C)(C)NC(=O)Cn1cnc(-c2ccc(Cl)cc2NC(=O)C(C)(C)C)cc1=O [Compound I-0407]	10 to 100
Cc1nc(-c2ccc(Cl)cc2NC(=O)C2CC2)cc(=O)n1CC(=O)N1CC(F)C1 [Compound I-0408]	100 to 1000
CC(C)(C)C(=O)Nc1cc(Cl)ccc1-c1cc(=O)n(CC(=O)NCC(N)=O)cn1 [Compound I-0409]	100 to 1000
COC(=O)Nc1cc(Cl)ccc1-c1cc(=O)n(CC(=O)NC2(C)COC2)c(C)n1 [Compound I-0410]	< 10
COC(=O)Nc1cc(Cl)ccc1-c1cc(=O)n(CC(=O)N2CC(C)(O)C2)c(C)n1 [Compound I-0411]	100 to 1000
COC(=O)Nc1cc(Cl)ccc1-c1cc(=O)n(CC(=O)NC(C)(C)CO)c(C)n1 [Compound I-0412]	< 10
COC(=O)Nc1cc(Cl)ccc1-c1cc(=O)n(CC(=O)NCC(C)(C)O)c(C)n1 [Compound I-0413]	10 to 100
COC(=O)Nc1cc(C#N)ccc1-c1cc(=O)n(CC(=O)NCc2c[nH]nn2)c(C)n1 [Compound I-0414]	< 10
COC(=O)Nc1cc(Cl)ccc1-c1cc(=O)n(CC(=O)NC(C)(C)CF)c(C)n1 [Compound I-0415]	< 10
Cc1nc(-c2ccc(Cl)cc2NC(=O)C2CC2)cc(=O)n1CC(=O)NC1(C#N)CC1 [Compound I-0416]	10 to 100
COC(=O)Nc1cc(C#N)ccc1-c1cc(=O)n(CC(=O)NCC2(CO)CC2)c(C)n1 [Compound I-0417]	10 to 100
COC(=O)Nc1cc(C#N)ccc1-c1cc(=O)n(CC(=O)N2CCC(O)CC2)c(C)n1 [Compound I-0418]	10 to 100
Cc1nc(-c2ccc(Cl)cc2NC(=O)C2CC2)cc(=O)n1CC(=O)NC1(C)COC1 [Compound I-0419]	10 to 100
Cc1nc(-c2ccc(Cl)cc2NC(=O)C2CC2)cc(=O)n1CC(=O)N1CC(C)(O)C1 [Compound I-0420]	100 to 1000
COC(=O)Nc1cc(Cl)ccc1-c1cc(=O)n(CC(=O)NCc2c[nH]nn2)c(C)n1 [Compound I-0421]	< 10
Cc1nc(-c2ccc(Cl)cc2NC(=O)C2CC2)cc(=O)n1CC(=O)NC(C)(C)CO [Compound I-0422]	10 to 100
Cc1nc(-c2ccc(Cl)cc2NC(=O)C2CC2)cc(=O)n1CC(=O)NCC(C)(C)O [Compound I-0423]	10 to 100
Cc1nc(-c2ccc(Cl)cc2NC(=O)C2CC2)cc(=O)n1CC(=O)NC(C)(C)CF [Compound I-0424]	10 to 100
COC(=O)Nc1cc(Cl)ccc1-c1cc(=O)n(CC(=O)N2CCC(O)CC2)c(C)n1 [Compound I-0425]	10 to 100
CC(C)(C)C(=O)Nc1cc(Cl)ccc1-c1cc(=O)n(Cc2cccc(C(=O)O)c2)cn1 [Compound I-0427]	10 to 100
COC(=O)Nc1cc(C#N)ccc1-c1cc(=O)n(CC(=O)NCC2CNC(=O)C2)c(C)n1 (stereo not drawn) [Compound I-0428]	10 to 100

SMILES	IC50 [nM]
COC(=O)Nc1cc(C#N)ccc1-c1cc(=O)n(CC(=O)NCc2cc(=O)[nH]o2)c(C)n1 [Compound I-0429]	< 10
COC(=O)Nc1cc(C#N)ccc1-c1cc(=O)n(CC(=O)NCC2CNC(=O)O2)c(C)n1 (stereo not drawn) [Compound I-0430]	10 to 100
Cc1nc(-c2ccc(Cl)cc2NC(=O)C2CC2)cc(=O)n1CC(=O)NCc1c[nH]nn1 [Compound I-0431]	10 to 100
COC(=O)Nc1cc(Cl)ccc1-c1cc(=O)n(CC(=O)N2CCC(C#N)CC2)c(C)n1 [Compound I-0433]	10 to 100
Cc1nc(-c2ccc(Cl)cc2NC(=O)C2CC2)cc(=O)n1CC(=O)NCC1(CO)CC1 [Compound I-0434]	10 to 100
Cc1nc(-c2ccc(Cl)cc2NC(=O)C2CC2)cc(=O)n1CC(=O)N1CCC(O)CC1 [Compound I-0435]	10 to 100
COC(=O)Nc1cc(Cl)ccc1-c1cc(=O)n(CC(=O)NCC2CCC(=O)N2)c(C)n1 (stereo not drawn) [Compound I-0437]	10 to 100
COC(=O)Nc1cc(Cl)ccc1-c1cc(=O)n(CC(=O)NCC2CNC(=O)C2)c(C)n1 (stereo not drawn) [Compound I-0438]	10 to 100
COC(=O)Nc1cc(Cl)ccc1-c1cc(=O)n(CC(=O)NCc2cc(=O)[nH]o2)c(C)n1 [Compound I-0439]	< 10
COC(=O)Nc1cc(Cl)ccc1-c1cc(=O)n(CC(=O)NC2(C(=N)NO)CC2)c(C)n1 [Compound I-0440]	10 to 100
COC(=O)Nc1cc(Cl)ccc1-c1cc(=O)n(CC(=O)N2CC(C(C)(C)O)C2)c(C)n1 [Compound I-0441]	100 to 1000
COC(=O)Nc1cc(Cl)ccc1-c1cc(=O)n(CC(=O)NCC2CNC(=O)O2)c(C)n1 (stereo not drawn) [Compound I-0442]	10 to 100
O=C(Cn1cnc(-c2ccc(Cl)cc2)cc1=O)NCCNC(=O)c1ccc2nn[nH]c2c1 [Compound I-0443]	≥ 1000
COC(=O)Nc1cc(C#N)ccc1-c1cc(=O)n(CC(=O)NC(C)(C)C(F)(F)F)c(C)n1 [Compound I-0444]	< 10
COC(=O)Nc1cc(C#N)ccc1-c1cc(=O)n(CC(=O)N2CCC(C(N)=O)CC2)c(C)n1 [Compound I-0445]	< 10
COC(=O)Nc1cc(C#N)ccc1-c1cc(=O)n(CC(=O)N2CCN(C(N)=O)CC2)c(C)n1 [Compound I-0446]	10 to 100
CC(C)(C)C(=O)Nc1cc(Cl)ccc1-c1cc(=O)n(CC(=O)Nc2cnccc2O)cn1 [Compound I-0447]	100 to 1000
Cc1nc(-c2ccc(Cl)cc2NC(=O)C2CC2)cc(=O)n1CC(=O)NCC1CCC(=O)N1 (stereo not drawn) [Compound I-0450]	10 to 100
Cc1nc(-c2ccc(Cl)cc2NC(=O)C2CC2)cc(=O)n1CC(=O)NCC1CNC(=O)C1 (stereo not drawn) [Compound I-0451]	10 to 100
Cc1nc(-c2ccc(Cl)cc2NC(=O)C2CC2)cc(=O)n1CC(=O)NCc1cc(=O)[nH]o1 [Compound I-0452]	10 to 100
Cc1nc(-c2ccc(Cl)cc2NC(=O)C2CC2)cc(=O)n1CC(=O)N1CC(C(C)(C)O)C1 [Compound I-0454]	100 to 1000
COC(=O)Nc1cc(Cl)ccc1-c1cc(=O)n(CC(=O)NC2(C(F)(F)F)CC2)c(C)n1 [Compound I-0455]	10 to 100

Source: patent publication US10183949B2, “Pyrimidinone derivative having autotaxin-inhibitory activity” (The University of Tokyo, priority 2014, dated 2019)
